According to ChEMBL document CHEMBL2202996, “Synthesis, evaluation, and radiolabeling of new potent positive allosteric modulators of the metabotropic glutamate receptor 2 as potential tracers for positron emission tomography imaging” (J Med Chem, 2012):

Legend:
[1] = target: T1, Sodium-dependent dopamine transporter (Homo sapiens, UniProt Q01959); experiment: Binding affinity to DAT
[2] = target: T2, D(1A) dopamine receptor (Homo sapiens, UniProt P21728); experiment: Binding affinity to dopamine D1 receptor
[3] = target: T1, Sodium-dependent dopamine transporter; experiment: Binding affinity to DAT at 10 uM by CEREP assay
[4] = target: T2, D(1A) dopamine receptor; experiment: Binding affinity to dopamine D1 receptor at 10 uM by CEREP assay
[5] = Fraction unbound in human plasma; format: ADME, cell-free
[6] = Fraction unbound in rat plasma; format: ADME, cell-free
[7] = system: Liver microsomes; experiment: Drug metabolism in rat liver microsomes assessed as M+O oxidative metabolite; format: ADME, Microsome
[8] = system: Liver microsomes; experiment: Drug metabolism in human liver microsomes assessed as M+O oxidative metabolite; format: ADME, Microsome
[9] = system: Liver microsomes; experiment: Drug metabolism in rat liver microsomes assessed as O-methylated compound derivative; format: ADME, Microsome
[10] = system: Liver microsomes; experiment: Drug metabolism in human liver microsomes assessed as O-methylated compound derivative; format: ADME, Microsome
[11] = system: CHO; experiment: Selectivity ratio for rat mGluR6 to human mGluR2 expressed in CHO cell membranes; format: cell-based
[12] = system: CHO; experiment: Selectivity ratio for human mGluR4 to human mGluR2 expressed in CHO cell membranes; format: cell-based
[13] = system: HEK293; experiment: Selectivity ratio for human mGluR8 expressed in HEK293 cells to human mGluR2 expressed in CHO cell membranes; format: cell-based
[14] = system: HEK293; experiment: Selectivity ratio for human mGluR7 expressed in HEK293 cells to human mGluR2 expressed in CHO cell membranes; format: cell-based
[15] = system: HEK293; experiment: Selectivity ratio for human mGluR5 expressed in HEK293 cells to human mGluR2 expressed in CHO cell membranes; format: cell-based
[16] = system: HEK293; experiment: Selectivity ratio for human mGluR3 expressed in HEK293 cells to human mGluR2 expressed in CHO cell membranes; format: cell-based
[17] = system: HEK293; experiment: Selectivity ratio for human mGluR1 expressed in HEK293 cells to human mGluR2 expressed in CHO cell membranes; format: cell-based
[18] = target: T3, Metabotropic glutamate receptor 2 (Homo sapiens, UniProt Q14416); experiment: Displacement of [3H]JNJ-40068782 from human mGLuR2 expressed in CHO cell membrane after 60 mins by liquid scintillation counting; format: cell membranes
Target sequence in this assay (Q14416 whole entry): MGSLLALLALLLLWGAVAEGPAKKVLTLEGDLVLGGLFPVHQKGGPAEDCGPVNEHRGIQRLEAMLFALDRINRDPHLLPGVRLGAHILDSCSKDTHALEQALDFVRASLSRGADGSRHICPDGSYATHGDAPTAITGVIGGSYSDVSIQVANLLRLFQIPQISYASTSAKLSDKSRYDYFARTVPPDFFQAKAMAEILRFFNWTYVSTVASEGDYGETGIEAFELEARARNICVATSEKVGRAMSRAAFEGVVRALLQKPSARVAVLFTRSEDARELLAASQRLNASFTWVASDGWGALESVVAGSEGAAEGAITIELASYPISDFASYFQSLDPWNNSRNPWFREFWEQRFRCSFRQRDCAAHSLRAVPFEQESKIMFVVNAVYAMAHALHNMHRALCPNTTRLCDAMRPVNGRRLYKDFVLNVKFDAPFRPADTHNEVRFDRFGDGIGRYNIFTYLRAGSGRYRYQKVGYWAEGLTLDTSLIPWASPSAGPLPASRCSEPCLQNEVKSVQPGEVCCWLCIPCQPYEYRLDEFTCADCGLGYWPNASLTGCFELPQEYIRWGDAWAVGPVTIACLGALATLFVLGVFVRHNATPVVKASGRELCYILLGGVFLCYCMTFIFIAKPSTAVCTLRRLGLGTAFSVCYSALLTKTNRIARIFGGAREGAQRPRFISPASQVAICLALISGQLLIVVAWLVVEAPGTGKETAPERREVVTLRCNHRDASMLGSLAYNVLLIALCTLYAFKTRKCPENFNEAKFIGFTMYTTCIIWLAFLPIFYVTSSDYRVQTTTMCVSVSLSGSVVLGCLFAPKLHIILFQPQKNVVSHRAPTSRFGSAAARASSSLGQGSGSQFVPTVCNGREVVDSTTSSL

[19] = target: T3, Metabotropic glutamate receptor 2; experiment: Agonist activity at human mGLuR2 expressed in CHO cell membrane assessed as […] after 30 mins by scintillation counting relative to control; format: functional, cell membranes
Target sequence in this assay (Q14416 19-872 limits assumed): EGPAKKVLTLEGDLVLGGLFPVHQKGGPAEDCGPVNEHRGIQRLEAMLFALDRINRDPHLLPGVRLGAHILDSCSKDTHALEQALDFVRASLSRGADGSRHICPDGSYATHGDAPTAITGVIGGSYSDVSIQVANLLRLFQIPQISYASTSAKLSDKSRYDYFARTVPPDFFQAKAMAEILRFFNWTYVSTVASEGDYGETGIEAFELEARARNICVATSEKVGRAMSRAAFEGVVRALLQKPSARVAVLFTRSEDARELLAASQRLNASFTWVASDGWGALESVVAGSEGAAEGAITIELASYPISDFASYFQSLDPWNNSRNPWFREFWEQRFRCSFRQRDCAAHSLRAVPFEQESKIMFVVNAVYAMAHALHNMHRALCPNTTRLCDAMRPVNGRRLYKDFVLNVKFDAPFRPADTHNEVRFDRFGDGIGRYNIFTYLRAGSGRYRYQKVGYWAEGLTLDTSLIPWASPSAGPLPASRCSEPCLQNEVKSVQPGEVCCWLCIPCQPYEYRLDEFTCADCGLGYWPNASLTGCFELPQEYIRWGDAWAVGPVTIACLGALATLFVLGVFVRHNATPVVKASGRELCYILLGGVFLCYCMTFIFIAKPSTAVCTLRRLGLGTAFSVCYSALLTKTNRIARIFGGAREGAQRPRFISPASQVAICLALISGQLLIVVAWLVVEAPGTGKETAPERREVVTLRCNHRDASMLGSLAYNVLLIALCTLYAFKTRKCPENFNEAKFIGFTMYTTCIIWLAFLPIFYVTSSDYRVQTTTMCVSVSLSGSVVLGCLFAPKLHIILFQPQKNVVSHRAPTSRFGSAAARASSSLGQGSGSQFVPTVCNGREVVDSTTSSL

[20] = target: T3, Metabotropic glutamate receptor 2; experiment: Agonist activity at human mGLuR2 expressed in CHO cell membrane assessed as […] after 30 mins by scintillation counting; format: functional, cell membranes; conditions: read-out: EC50
Target sequence in this assay (Q14416 whole entry): as the sequence (Q14416 whole entry) above

[21] = system: Rattus norvegicus; experiment: Biodistribution in Wistar rat urinary system at 22 Mbq, iv measured at 60 mins post administration by gamma counting; format: ADME, organism-based, Urine; conditions: in vivo, 1 h
[22] = system: Liver; experiment: Biodistribution in Wistar rat liver at 22 Mbq, iv measured at 60 mins post administration by gamma counting; format: ADME, organism-based; conditions: in vivo, 1 h
[23] = system: Intestine; experiment: Biodistribution in Wistar rat intestine at 22 Mbq, iv measured at 60 mins post administration by gamma counting; format: ADME, organism-based; conditions: in vivo, 1 h
[24] = system: Brain; experiment: Ratio of SUV in total brain in iv dosed Wistar at 2 mins post administration by gamma counting to SUV in total brain in iv dosed Wistar at 30 mins post administration by gamma counting; format: ADME, organism-based; conditions: rat, in vivo
[25] = system: Cerebellum; experiment: Ratio of SUV in cerebellum in iv dosed Wistar at 2 mins post administration by gamma counting to SUV in cerebellum in iv dosed Wistar at 30 mins post administration by gamma counting; format: ADME, organism-based; conditions: rat, in vivo
[26] = system: Cerebrum; experiment: Ratio of SUV in cerebrum in iv dosed Wistar at 2 mins post administration by gamma counting to SUV in cerebrum in iv dosed Wistar at 30 mins post administration by gamma counting; format: ADME, organism-based; conditions: rat, in vivo
[27] = system: Cortex; experiment: Ratio of SUV in cortex in iv dosed Wistar at 2 mins post administration by gamma counting to SUV in cortex in iv dosed Wistar at 30 mins post administration by gamma counting; format: ADME, organism-based; conditions: rat, in vivo
[28] = system: Hippocampus; experiment: Ratio of SUV in hippocampus in iv dosed Wistar at 2 mins post administration by gamma counting to SUV in hippocampus in iv dosed Wistar at 30 mins post administration by gamma counting; format: ADME, organism-based; conditions: rat, in vivo
[29] = system: Striatum; experiment: Ratio of SUV in striatum in iv dosed Wistar at 2 mins post administration by gamma counting to SUV in striatum in iv dosed Wistar at 30 mins post administration by gamma counting; format: ADME, organism-based; conditions: rat, in vivo
[30] = system: Cerebellum; experiment: Biodistribution in Wistar rat cerebellum at 22 Mbq, iv measured at 2 mins post administration by gamma counting; format: ADME, organism-based; conditions: in vivo
[31] = system: Cerebrum; experiment: Biodistribution in Wistar rat cerebrum at 22 Mbq, iv measured at 2 mins post administration by gamma counting; format: ADME, organism-based; conditions: in vivo
[32] = system: Brain; experiment: Biodistribution in Wistar rat brain at 22 Mbq, iv measured at 2 mins post administration by gamma counting; format: ADME, organism-based; conditions: in vivo

T1 sequence (Q01959 whole entry): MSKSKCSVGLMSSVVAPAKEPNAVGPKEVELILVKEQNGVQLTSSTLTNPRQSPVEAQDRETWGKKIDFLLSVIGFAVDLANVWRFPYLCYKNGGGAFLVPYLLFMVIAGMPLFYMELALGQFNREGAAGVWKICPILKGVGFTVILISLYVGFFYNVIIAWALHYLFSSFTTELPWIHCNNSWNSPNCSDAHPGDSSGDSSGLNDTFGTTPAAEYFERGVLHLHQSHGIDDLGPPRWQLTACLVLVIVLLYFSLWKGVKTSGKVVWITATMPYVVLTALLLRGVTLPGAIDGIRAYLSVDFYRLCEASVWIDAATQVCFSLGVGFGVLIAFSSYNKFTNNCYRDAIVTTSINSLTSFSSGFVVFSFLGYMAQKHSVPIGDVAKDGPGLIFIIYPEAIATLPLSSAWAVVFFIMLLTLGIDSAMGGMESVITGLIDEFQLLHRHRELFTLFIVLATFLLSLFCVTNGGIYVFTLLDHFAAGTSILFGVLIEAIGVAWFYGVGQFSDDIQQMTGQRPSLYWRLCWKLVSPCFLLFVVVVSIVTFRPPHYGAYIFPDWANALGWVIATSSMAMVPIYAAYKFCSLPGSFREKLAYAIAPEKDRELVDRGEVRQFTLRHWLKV
T2 sequence (P21728 whole entry): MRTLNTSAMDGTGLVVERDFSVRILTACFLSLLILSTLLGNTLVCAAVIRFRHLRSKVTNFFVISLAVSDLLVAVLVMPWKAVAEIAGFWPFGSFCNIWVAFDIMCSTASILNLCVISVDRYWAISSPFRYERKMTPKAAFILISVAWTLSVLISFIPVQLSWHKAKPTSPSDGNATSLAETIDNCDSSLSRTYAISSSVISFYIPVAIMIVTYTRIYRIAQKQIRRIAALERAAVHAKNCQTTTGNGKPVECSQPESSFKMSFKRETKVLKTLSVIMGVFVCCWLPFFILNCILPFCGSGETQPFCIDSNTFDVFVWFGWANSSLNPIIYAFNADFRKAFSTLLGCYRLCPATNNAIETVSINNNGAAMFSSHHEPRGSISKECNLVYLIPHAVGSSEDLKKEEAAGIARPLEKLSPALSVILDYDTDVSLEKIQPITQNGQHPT

fraction unbound [5] | fraction unbound [6] | Drug metabolism [7] | Drug metabolism [8] | Drug metabolism [9] | Drug metabolism [10] | Emax [19] [%] | EC50 [20] [nM] | SMILES | further results
< 0.01 | < 0.01 | Active | Active | Active | Active | 342 | 26 | COc1c(C2CCN(c3ccn4c(CC5CC5)nnc4c3Cl)CC2)ccc(F)c1F | –
< 0.01 | < 0.01 | Active | Active | Active | Active | 345 | – | COc1ccccc1C1CCN(c2ccn3c(CC4CC4)nnc3c2Cl)CC1 | –

Continued, compound first:

SMILES | fraction unbound [5] | fraction unbound [6] | Drug metabolism [7] | Drug metabolism [8] | Drug metabolism [9] | Drug metabolism [10] | Emax [19] [%] | EC50 [20] [nM] | further results
COc1c(F)ccc(F)c1C1CCN(c2ccn3c(CC4CC4)nnc3c2Cl)CC1 | < 0.01 | < 0.01 | Active | Active | Active | Active | 282 | 7.5 | Ki [1]: > 8500 nM; Ki [2]: ≥ 6200 nM; Activity [3]: 52%; Activity [4]: 76%; Selectivity ratio [11]: > 350; Selectivity ratio [12]: > 350; Selectivity ratio [13]: > 350; Selectivity ratio [14]: > 350; Selectivity ratio [15]: > 350; Selectivity ratio [16]: > 350; Selectivity ratio [17]: > 350; IC50 [18]: 9.23 nM
COc1c(F)cccc1C1CCN(c2ccn3c(CC4CC4)nnc3c2Cl)CC1 | < 0.01 | < 0.01 | Active | Active | Active | Active | 336 | – | –
COc1ccc(F)c(F)c1C1CCN(c2ccn3c(CC4CC4)nnc3c2Cl)CC1 | < 0.01 | < 0.01 | Active | Active | Active | Active | 258 | – | Selectivity ratio [11]: > 350; Selectivity ratio [12]: > 350; Selectivity ratio [13]: > 350; Selectivity ratio [14]: > 350; Selectivity ratio [15]: > 350; Selectivity ratio [16]: 70; Selectivity ratio [17]: > 350; IC50 [18]: 7.3 nM
COc1c(F)cccc1C1CCN(c2ccn3c(CC4CC4)nnc3c2C(F)(F)F)CC1 | < 0.01 | < 0.01 | Active | Active | Active | Active | 528 | 11 | –
[11CH3]Oc1cccc(F)c1C1CCN(c2ccn3c(CC4CC4)nnc3c2Cl)CC1 | – | – | – | – | – | – | – | – | Drug uptake [21]: Active; Drug uptake [22]: Active; Drug uptake [23]: Active; Ratio [24]: 0.72; Ratio [25]: 0.71; Ratio [26]: 0.6; Ratio [27]: 0.71; Ratio [28]: 0.63; Ratio [29]: 0.59; Drug uptake [30]: 0.17 %ID; Drug uptake [31]: 0.45 %ID; Drug uptake [32]: 0.65 %ID
[11CH3]Oc1c(F)ccc(F)c1C1CCN(c2ccn3c(CC4CC4)nnc3c2C(F)(F)F)CC1 | – | – | – | – | – | – | – | – | Ratio [24]: 1.08; Ratio [25]: 0.99; Ratio [26]: 0.98; Ratio [27]: 1.04; Ratio [28]: 1.01; Ratio [29]: 0.86; Drug uptake [30]: 0.17 %ID; Drug uptake [31]: 0.54 %ID; Drug uptake [32]: 0.75 %ID
